# Source: US10822317B2, “Methods and compositions for wound healing” (QBiotics Limited, priority 2013, dated 2020)
# Assays:
# [1] = test system: wounds following necrosis and sloughing of spontaneous tumours; assay: Resolution of wounds after sloughing of spontaneous tumours treated by intratumoural injection, feline; assay type: in vivo
# Experimental: Veterinary clinical data on speed of resolution of wounds that formed following necrosis and sloughing of spontaneous tumours that had been treated by intratumoural injection of Compound 1 (30% 1,2 propanediol formulation at either 0.5 or 1.0 mg/mL concentration) in twenty-four companion animals are summarised in Table 17.
# Note that all wounds were managed as open wounds and no bandaging, dressings, lotions or concomitant medications were used in any of these cases.
# [2] = test system: TGF-β1-stimulated dermal fibroblasts; assay: Differentiation of adult dermal fibroblasts into myofibroblasts (α-SMA expression); assay type: cell-based, human
# Experimental: The effects of Compounds […] and 37 on dermal fibroblast differentiation to myofibroblasts was examined by the extent of α-SMA expression by TGF-βi-stimulated dermal fibroblasts.
# Following trypsinization, fibroblasts were seeded in 8-well, Permanoxchamber slides (VWR International) in DMEM medium, containing antibiotics, 2 mM L-glutamine and 10% foetal calf serum (250 μL, all purchased from Invitrogen); at a cell density of 2.5×10^4 cells/well and maintained at 37° C. in 5% CO2/95% air for 48 h.
# At 48 hr, fibroblasts were growth-arrested in serum-free DMEM for 48 hr and then replaced with serum-free DMEM (250 μL), containing Compounds 1 or 37 at concentrations of 0, 0.001, 0.01, 0.1, 1.0 and 10.0 μg/mL (3 wells/concentration/compound) and TGF-β1 (10 ng/ml, Peprotech). Fibroblasts were maintained at 37° C. in 5% CO2/95% air for 72 hr.
# At 72 hr, chamber slide wells were washed with PBS (×1, 250 μL) and fixed in 4% paraformaldehyde (100 μL/well) for 10 min. The chamber slide wells were then washed again with PBS (×1, 250 μl), treated with 0.1% Triton X-100 in PBS (100 μL, Sigma) for 5 min and re-washed with PBS (×1, 250 μL). Wells were blocked with 1% BSA in PBS (250 μL, Sigma) for 1 h and washed (×3) in 0.1% BSA/PBS.
# Wells were incubated with monoclonal mouse anti-human α-SMA, clone 1A4 (1:100, 150 ul, Sigma) at 4° C. overnight, washed (×6) in 0.1% BSA/PBS and incubated with Alexa Fluor 488 goat anti-mouse IgG antibody (1:1000, 250 μL, Invitrogen), at room temperature for 1 h, under darkness. Chamber slides were washed (×6) in 0.1% BSA/PBS and counterstained with Hoescht 33258 solution for 30 min under darkness (1:2000, 250 μL, Sigma). Chamber were subsequently removed for slides and treated with Fluorsave (Santa Cruz) for 10 min under darkness. Slides were viewed by fluorescence microscopy (Leica Microsystem), with digital images being capturedat ×200 magnification. Digital images were processed using HC Image J Software.
# [3] = test system: chronic, non-healing wounds; assay: Veterinary clinical treatment of non-healing and difficult wounds, 10 pet animals (overall); assay type: in vivo, dogs, tree kangaroos, spectacled flying fox; conditions: eight completed cases; open wounds, no dressings
# Experimental: Compound 1 has been used to treat to heal difficult wounds in 10 pet (i.e. privately owned and cared for) animals with the aim of improving second intention wound healing
# Seven dogs (Canis lupus familiaris) and one tree kangaroo (Dendrolagus humholzii) with chronic, non-healing wounds that were unresponsive to current veterinary standards-of-care for these indications were treated with Compound 1 by independent veterinarians. A second tree kangaroo and a spectacled flying fox (Pteropus conspicillatus) with wounds unsuited for initial treatment with current standards-of-care were also treated with Compound 1. All cases were managed as open wounds without the use of dressings or other bandaging during the course of treatment with Compound 1 and the subsequent period of wound resolution. Unless stated in individual case studies, no concomitant medications were used over the course of treatments with Compound 1.
# Case and treatment notes for each of these patients are summarised below. Note that the return presentation of these animals to the treating veterinarians was often irregular and wound healing outcomes may have occurred well before the return assessment visits.
# [4] = test system: immortalised human keratinocyte cells (HaCaT); assay: Scratch repopulation and closure with HaCaT; assay type: cell-based; conditions: 48 hrs; 0.001, 0.01 and 0.1 μg/ml; p<0.01
smiles,measurement,setting,value
"CC=C(C)C(=O)OC1C(C)C2(O)C(C3OC3(CO)C(O)C3(O)C(=O)C(C)=CC32)C2C(C)(C)C12OC(=O)C(C)CC (stereo not drawn) [Compound 1, 12-tigloyl-13-(2-methylbutanoyl)-6,7-epoxy-4,5,9,12,13,20-hexahydroxy-1-tigliaen-3-one]","No. of cats: Tissue deficit at wound site, Minor",[1]; 5 to 10% tissue deficit across the original wound area,0
same,"No. of cats: Tissue deficit at wound site, Nil or minimal",[1]; <5% tissue deficit across the original wound area,3
same,"No. of cats: Tissue deficit at wound site, Substantial",[1]; >10% tissue deficit across the original wound area,0
same,Average days from tumour slough to wound closure,"[1]; Feline, wound size class 0.25 to 12 cm^2, 3 cases",17 ± 10 days
same,"No. of cats: Hair regrowth on wound area, Sparse",[1]; Hair covers <50% of original wound area,0
same,"No. of cats: Hair regrowth on wound area, Partial",[1]; Hair covers >50% of original wound area,1
same,"No. of cats: Hair regrowth on wound area, Full",[1]; Hair covers >95% of original wound area,2
same,"No. of cats: Scarring & skin thickening, Minor",[1]; Localised scar covering <10% of original wound area,0
same,"No. of cats: Scarring & skin thickening, Substantial",[1]; Scarring covering >10% of original wound area,0
same,"No. of cats: Scarring & skin thickening, Nil or minimal",[1]; Scarring not obvious visually or by touch,3
same,"No. of cats: Change in hair colour, No",[1]; healed wound site,2
same,"No. of cats: Change in hair colour, Yes",[1]; healed wound site,1
same,"No. of cats: Skin pigmentation, Hyperpigmentation",[1]; healed wound site,0
same,"No. of cats: Skin pigmentation, Hypopigmentation",[1]; healed wound site,0
same,"No. of cats: Skin pigmentation, Normal",[1]; healed wound site,3
same,"No. of cats: Skin pigmentation, Patchy",[1]; healed wound site,0
same,differentiation of TGF-β1-treated adult dermal fibroblasts into myofibroblasts,"[2]; 0.001 to 10.0 μg/mL, 72 hr",affected differentiation into myofibroblasts in a concentration-dependent manner
same,α-SMA stress fibre formation and polygonal cellular morphology (myofibroblast differentiation),"[2]; TGF-β1 10 ng/ml, 72 hr, 0.1 μg/mL",lacked the α-SMA stress fibre formation and the typical polygonal cellular morphology
same,myofibroblast morphology,[2]; between 1 and 10 μg/mL,subtle alterations in myofibroblast morphology
same,wound resolution,[3],effective wound resolution with minimal scarring
same,rate of scratch closure compared to the control treatment,[4],significantly increased
